Counter-ions that a name gives are not always drawn.
Legend:
[1] = biological target: T1, human c-Mpl receptor (Homo sapiens, UniProt P40238); experiment: Human c-Mpl-introduced Ba/F3 cell proliferative activity; type: cell-based; details: concentration showing 30% proliferation; 100% = positive control at 1 μM
T1 construct: expressed in transfected cells
T1 sequence (P40238 26-635): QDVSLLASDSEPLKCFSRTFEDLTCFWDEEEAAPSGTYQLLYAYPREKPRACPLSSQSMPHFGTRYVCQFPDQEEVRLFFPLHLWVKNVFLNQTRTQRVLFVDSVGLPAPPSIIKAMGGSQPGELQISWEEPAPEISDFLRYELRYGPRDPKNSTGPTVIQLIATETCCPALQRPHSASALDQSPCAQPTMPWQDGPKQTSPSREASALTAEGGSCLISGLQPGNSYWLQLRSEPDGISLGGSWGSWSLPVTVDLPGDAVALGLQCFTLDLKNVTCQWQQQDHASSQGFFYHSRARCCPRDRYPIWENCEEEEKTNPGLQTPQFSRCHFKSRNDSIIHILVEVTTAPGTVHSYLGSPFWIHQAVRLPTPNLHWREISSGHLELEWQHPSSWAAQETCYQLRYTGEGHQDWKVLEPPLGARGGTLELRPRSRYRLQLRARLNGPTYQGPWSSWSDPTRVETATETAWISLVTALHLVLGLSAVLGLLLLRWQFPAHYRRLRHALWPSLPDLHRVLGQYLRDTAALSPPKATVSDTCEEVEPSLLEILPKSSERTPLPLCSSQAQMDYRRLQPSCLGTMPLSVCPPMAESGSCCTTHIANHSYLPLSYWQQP
Procedure: Evaluation of Human c-Mpl-Introduced Ba/F3 Cell Proliferative Activity
The human c-Mpl-introduced Ba/F3 cell proliferative activity was measured by the following method.
As a positive control, 1-(5-{[4-(4-chloro-2-thienyl)-5-{[(2R)-2-methylpyrrolidin-1-yl]methyl}-1,3-thiazol-2-yl]carbamoyl}-3-fluoropyridin-2-yl)piperidine-4-carboxylic acid hydrochloride, which is disclosed as Example 315 in Patent Document 1 and represented by the formula A1, was used. It is known that the compound has a good human c-Mpl-introduced Ba/F3 cell proliferative activity as disclosed in Table 1 of Patent Document 1.
a) Construction of Human c-Mpl Receptor Expression Vector
A human c-mpl receptor gene (GenBank Accession No. M90102.1) was introduced into an expression vector pEF-BOS (Nucleic Acids Res. 18, 5322, 1990).
b) Construction of Cell Stably Expressing Human c-Mpl Receptor
A human c-Mpl receptor expression vector was introduced into a Ba/F3 cell (RIKEN BRC: RCB0805). For the introduction, an electroporation method was used. pEF-BOS-c-mpl (10 μg), pSV2bsr (1 μg, Kaken Pharmaceutical Co., Ltd.) and 1×10^7 Ba/F3 cells were put into a cuvette having a gap width of 0.4 cm, and electroporated under the conditions of 1.5 kV (25 μF) by a Gene Pulser (registered trademark) (BioRad). The cells were cultured in an RPMI-1640 culture medium containing 0.5% WEHI conditioned media (BD Biosciences) and 10% fetal bovine serum for 3 days, and then cultured in an RPMI-1640 culture medium, to which 10 μg/mL blasticidin had been further added, for 30 days to acquire a drug-resistant clone.
c) Measurement of Cell Proliferative Activity
The cells obtained in b) above was cultured in an RPMI-1640 culture medium containing 0.5% WEHI conditioned media, 10% fetal bovine serum, and used. On the day before the experiment, test substances (final concentration of 100 nM to 10 μM) which had been dissolved in a culture medium for assay (RPMI-1640 culture medium containing 10% fetal bovine serum) were added to a 384-well plate (Lot No. 781185, Greiner Bio-One). The cells in the culture medium that had been replaced with a culture medium for assay were dispensed into a 384-well plate, to which the test substances had been added in advance, to 1×10^4 cells/well, and cultured at 37° C. and 5% CO2 overnight. On the experiment day, a solution of a Cell Counting Kit (Dojindo Laboratories) was added to each well of the 384-well plate and cultured at 37° C. and 5% CO2 for about 5 hours. Thereafter, the absorbance (absorption wavelength of 450 nm) of each well was measured using Safire^2™ (TECAN) and used as the index of the number of cells. Further, as a negative control, a well in which the test substance had been not added was prepared.
The absorbance of the well without the test substance was set to 0%, and the absorbance in the case where the positive control was added at a final concentration of 1 μM was set to 100%. From the absorbance in the case where the test substance had been added, a cell proliferation rate (%) was calculated. From the obtained results, the test substance concentration showing 30% proliferation was calculated as an EC30 value by a logistic regression method.

[2] = tested on: isolated rat bladder; experiment: Transmural electrical field stimulation-induced contraction of isolated rat bladder; details: AUC of contractile response, value before treatment = 100%, SD female rat bladder strip, read-out: Enhancement rate of isolated bladder contraction (% of pre)
Procedure: Effects on Transmural Electrical Field Stimulation-Induced Contraction of Isolated Rat Bladder
As an effect on the nerve stimulation-dependent bladder contraction in vitro, the effect of the Example compound of the present invention in the transmural electrical field stimulation-induced contraction of isolated rat bladder was measured by the following method. That is, from the bladder isolated from a Spraque-Dawley (SD) female rat (Japan SLC, Inc.), a longitudinal bladder strip having a width of about 2 mm and a length of about 10 mm was prepared. The prepared bladder strip was suspended in an organ bath filled with 10 mL of a Krebs-Henseleit solution. The Krebs-Henseleit solution was bubbled with 95% O2 and 5% CO2, and kept at 37° C. After stabilization at an initial tension of 1 g, contraction was induced twice with 60 mM KCl. The strip was washed with the Krebs-Henseleit solution and stabilized, and then contraction was induced with transmural electrical field stimulation at 20 V (stimulation frequency of 8 Hz, pulse width of 0.3 msec, and stimulation time of 10 seconds) by an electrical stimulation device (Nihon Kohden Corporation). At an interval of 2 minutes, transmural electrical field stimulation was repeated and the voltage was adjusted to make the contractile amplitude about 50% of the contractile response by 20 V. After stabilization of the contraction by the transmural electrical field stimulation, 10 μL of the test substance (final concentrations of 3 μM, 10 μM, and 30 μM), which had been dissolved in 100% dimethylsulfoxide in advance was added. The test substance was cumulatively administered at the next concentration after the contractile response at a lower concentration had been stabilized. The responses were put into a personal computer through PowerLab (registered trademark) (AD Instruments), and analyzed with LabChart (registered trademark) (AD Instruments). The area under the response of each contractile response (area under curve, AUC) was calculated and the value before the treatment with the test substance was set to 100%. Based on this, the enhancement rate of the isolated bladder contraction (% of pre) after the treatment with the test substance was calculated.
The enhancement rates of the isolated bladder contraction due to several 10 μM Example compounds which are the compounds of the formula (I) are shown in Table 2.

Row | Test Example 2 EC30 [1] [µM] | Compound | activity at 10 µM [2] [%]
1 | 0.35 | C[C@@H]1CCCN1Cc1sc(NC(=O)c2cnc(N3CCC(C(=O)O)CC3)cn2)nc1-c1cc(Cl)cs1 [Example 4, 1-(5-{[4-(4-chloro-2-thienyl)-5-{[(2R)-2-methylpyrrolidin-1-yl]methyl}-1,3-thiazol-2-yl]carbamoyl}pyrazin-2-yl)piperidine-4-carboxylic acid dihydrochloride] | 180
2 | >10 | CC[C@@H]1CCCN1Cc1sc(NC(=O)c2cnc(N3CCC(C(=O)O)CC3)cn2)nc1-c1cc(F)cc(C(F)(F)F)c1 [Example 115] | 121
3 | >10 | CC[C@@H]1CCCN1Cc1sc(NC(=O)c2cnc(N3CCC(C(=O)O)CC3)cn2)nc1-c1ccc(OC)c(C(F)(F)F)c1 [Example 156] | 135

— US9562044B2, “2-acylaminothiazole derivative or salt thereof” (ASTELLAS PHARMA INC., priority 2013, dated 2017)
